Data published in US5614520A, “2-arylthiazole derivatives and pharmaceutical composition thereof” (priority 1990, dated 1997).
Read-outs that look alike come from different tables or passages of the source.

Legend:
xanthine oxidase = target: T1, xanthine oxidase (Bos taurus, UniProt P80457); assay: In vitro determination of xanthine oxidase (XOD) inhibition; assay type: biochemical; conditions: xanthine oxidase from butter milk, xanthine substrate, pH 7.4, 37° C.
T1 construct: purchased Sigma Chemical Company; host or cells: butter milk
Description: (1) Preparation of test compounds:
Test compounds (compounds of Ex. No. listed in Table 1) were dissolved in dimethylsulfoxide and diluted with a 50 mM phosphate buffer to prepare aqueous solutions respectively having predetermined concentrations.
The inhibition rate was determined by the following equation: [formula]
The inhibition (%) was determined on each test compound prepared according to (1), and the IC50 value on the xanthine oxidase (XOD) inhibition was calculated from the value of inhibition.

serum uric acid = assay: Determination of oral administration: lowering of serum uric acid in mice; assay type: in vivo, ICR male mice; conditions: for inhibition in vivo at 1 mg/kg: Mus musculus, read-out: Activity of lowering uric acid
Description: Test compounds suspended in a 5% gum arabic solution was forcibly administered by oral administration (compounds of Ex. No. of Table 2, dose: 1 mg/kg) to ICR male mice (age: about 7 weeks) (one group: 6 mice) by means of an oral probe. 2 hours after the administration, thoracotomy was conducted under etherization to collect blood from the heart, and serum was removed by a conventional process. The serum uric acid was measured by a biochemical automatic analyzer (Flexigem; Electro-Nucleonics, Inc.) by using a uric acid measurement kit (UA reagent; International Reagent) to determine the percentage of the lowering of uric acid. [formula]

[1] = ICR male mice, oral, 1 mg/kg, 2 hours after administration, serum

T1 sequence (P80457 whole entry): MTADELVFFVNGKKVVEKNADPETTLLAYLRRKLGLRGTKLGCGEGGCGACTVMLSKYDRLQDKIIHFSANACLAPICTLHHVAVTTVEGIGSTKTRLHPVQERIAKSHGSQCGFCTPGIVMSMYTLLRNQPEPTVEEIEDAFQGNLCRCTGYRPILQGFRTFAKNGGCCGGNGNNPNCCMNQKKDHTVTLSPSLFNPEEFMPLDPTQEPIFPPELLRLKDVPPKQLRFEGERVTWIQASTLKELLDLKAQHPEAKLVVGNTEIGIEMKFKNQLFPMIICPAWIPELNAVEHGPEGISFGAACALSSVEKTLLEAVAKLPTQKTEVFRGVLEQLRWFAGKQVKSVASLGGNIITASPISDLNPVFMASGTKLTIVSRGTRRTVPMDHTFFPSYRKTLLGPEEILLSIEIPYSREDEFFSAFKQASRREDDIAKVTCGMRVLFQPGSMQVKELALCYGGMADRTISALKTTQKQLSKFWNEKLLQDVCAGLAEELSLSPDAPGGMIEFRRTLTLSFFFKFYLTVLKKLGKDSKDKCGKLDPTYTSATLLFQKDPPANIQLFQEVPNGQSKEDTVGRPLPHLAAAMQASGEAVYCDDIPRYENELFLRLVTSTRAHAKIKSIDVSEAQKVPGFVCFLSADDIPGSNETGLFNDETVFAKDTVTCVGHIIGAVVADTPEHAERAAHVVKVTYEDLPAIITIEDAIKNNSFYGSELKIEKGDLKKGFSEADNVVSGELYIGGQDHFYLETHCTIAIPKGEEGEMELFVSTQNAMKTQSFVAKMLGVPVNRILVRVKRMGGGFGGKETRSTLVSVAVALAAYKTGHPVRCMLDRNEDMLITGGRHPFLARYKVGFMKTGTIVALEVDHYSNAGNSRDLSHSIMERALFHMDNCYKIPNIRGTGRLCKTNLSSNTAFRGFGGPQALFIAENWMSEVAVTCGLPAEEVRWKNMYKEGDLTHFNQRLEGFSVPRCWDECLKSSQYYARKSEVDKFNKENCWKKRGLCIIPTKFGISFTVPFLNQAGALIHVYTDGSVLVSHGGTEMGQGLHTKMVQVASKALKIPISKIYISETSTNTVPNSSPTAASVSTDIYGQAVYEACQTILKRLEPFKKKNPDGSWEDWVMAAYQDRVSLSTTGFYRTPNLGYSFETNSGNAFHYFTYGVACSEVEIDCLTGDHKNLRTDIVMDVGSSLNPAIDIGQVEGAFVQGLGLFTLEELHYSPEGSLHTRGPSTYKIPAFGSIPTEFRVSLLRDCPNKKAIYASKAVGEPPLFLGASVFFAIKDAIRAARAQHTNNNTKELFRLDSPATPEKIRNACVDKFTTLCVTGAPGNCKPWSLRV

| Compound | IC50 (xanthine oxidase) [nM] | inhibition in vivo at 1 mg/kg (serum uric acid; [1]) [%] | other results |
| --- | --- | --- | --- |
| Cc1nc(-c2cccc(C(=O)O)c2)sc1C(=O)O [Example 13, 2-(3-carboxyphenyl)-4-methyl-5-thiazolecarboxylic acid] | 320 |  |  |
| Cc1nc(-c2ccc(OCC(C)C)c([N+](=O)[O-])c2)sc1C(=O)OCC(C)C [Example 48, Isobutyl 2-(4-isobutyloxy-3-nitrophenyl)-4-methyl-5-thiazolecarboxylate] |  | 88 |  |
| Cc1nc(-c2cc(C(C)(C)C)c(O)c(C(C)(C)C)c2)sc1C(=O)O [Example 29, 2-(3,5-Di-t-butyl-4-hydroxyphenyl)-4-methyl-5-thiazolecarboxylic acid] | 65 |  |  |
| Cc1nc(-c2cc([N+](=O)[O-])ccc2Cl)sc1C(=O)O [Example 24, 2-(2-Chloro-5-nitrophenyl)-4-methyl-5-thiazolecarboxylic acid] | 67 |  |  |
| Cc1nc(-c2cccc(C(=O)c3ccccc3)c2)sc1C(=O)O [Example 19, 2-(3-Benzoylphenyl)-4-methyl-5-thiazolecarboxylic acid] | 12 |  |  |
| Cc1nc(-c2ccc(C(=O)Nc3ccc(Cl)cc3)cc2)sc1C(=O)O [Example 16, 2-(4-(4-Chlorophenylcarbamoyl)phenyl)-4-methyl-5-thiazolecarboxylic acid] |  |  | inhibition in vivo at 1 mg/kg (serum uric acid; po, 2 h): 21% |
| Cc1nc(-c2ccc(OC(C)C)c(C#N)c2)sc1C(=O)O [Example 76, 2-(3-cyano-4-isopropoxyphenyl)-4-methyl-5-thiazolecarboxylic acid] |  |  | inhibition in vivo at 1 mg/kg (serum uric acid; po, 2 h): 86% |
| Cc1nc(-c2ccc(OCc3ccc(Cl)cc3)cc2)sc1C(=O)O [Example 9, 2-(4-(4-Chlorobenzyloxy)phenyl)-4-methyl-5-thiazolecarboxylic acid] | 17 |  |  |
| Oc1ncnc2[nH]ncc12 [allopurinol, reference compound] |  |  | inhibition in vivo at 1 mg/kg (serum uric acid; po, 2 h): 73% |
| Cc1nc(-c2ccc([N+](=O)[O-])cc2)sc1C(=O)O [Example 4, 4-methyl-2-(4-nitrophenyl)-5-thiazolecarboxylic acid] | 900 |  |  |
| CC(=O)c1cc(-c2nc(C)c(C(=O)O)s2)ccc1O [Example 25, 2-(3-Acetyl-4-hydroxyphenyl) -4-methyl-5-thiazolecarboxylic acid] | 300 |  |  |
| Cc1nc(-c2ccc(C(=O)N(C)c3ccc(Cl)cc3)cc2)sc1C(=O)O [Example 17, 2-(4-(N-(4-chlorophenyl)-N-methylcarbamoyl)phenyl)-4-methyl-5-thiazolecarboxylic acid] | 500 |  |  |
| Cc1nc(-c2ccc(OCc3ccc(F)cc3)cc2)sc1C(=O)O [Example 10, 2-(4-(4-Fluorobenzyloxy)phenyl)-4-methyl-5-thiazolecarboxylic acid] | 31 |  |  |
| Cc1nc(-c2cccc([N+](=O)[O-])c2)sc1C(=O)O [Example 3, 4-methyl-2-(3-nitrophenyl)-5-thiazolecarboxylic acid] | 14 |  |  |
| Cc1nc(-c2ccc(OCC(C)C)c(C#N)c2)sc1C(=O)O [Example 77, 2-(3-Cyano-4-isobutyloxyphenyl)-4-methyl-5-thiazolecarboxylic acid] |  |  | inhibition in vivo at 1 mg/kg (serum uric acid; po, 2 h): 95% |
| COc1nc(-c2ccc(OC(C)C)cc2)sc1C(=O)O [Example 23, 2-(4-isopropoxyphenyl)-4-methoxy-5-thiazolecarboxylic acid] | 130 |  |  |
| Cc1nc(-c2ccc(OC(C)C)cc2)sc1C(=O)O [Example 2, 2-(4-isopropoxyphenyl)-4-methyl-5-thiazolecarboxylic acid] | 28 |  |  |
| Cc1cc(-c2nc(C)c(C(=O)O)s2)cc(C)c1O [Example 30, 2-(3,5-Dimethyl-4-hydroxyphenyl)-4-methyl-5-thiazolecarboxylic acid] | 42 |  |  |
| O=C(O)c1sc(-c2cccc(Cl)c2)nc1O [Example 21, 2-(3-chlorophenyl)-4-hydroxy-5-thiazolecarboxylic acid] | 720 |  |  |
| Cc1nc(-c2ccc(OC(C)C)c([N+](=O)[O-])c2)sc1C(=O)OC(C)C [Example 47, isopropyl 2-(4-isopropoxy-3-nitrophenyl)-4-methyl-5-thiazolecarboxylate] |  | 92 |  |

More lines, in order of falling IC50 (xanthine oxidase), values ahead:

| IC50 (xanthine oxidase) [nM] | Compound | inhibition in vivo at 1 mg/kg (serum uric acid; [1]) [%] | other results |
| --- | --- | --- | --- |
| 2.9 | Cc1nc(-c2ccc(OCC(C)(C)C)c(Cl)c2)sc1C(=O)O [Example 54, 2-(3-Chloro-4-neopentyloxyphenYl)-4-methyl-5-thiazolecarboxylic acid] | 12 |  |
| 2.4 | Cc1nc(-c2ccc(OCC(C)C)c([N+](=O)[O-])c2)sc1C(=O)O [Example 34, 2-(4-Isobutyloxy-3-nitrophenyl)-4-methyl-5-thiazolecarboxylic acid] | 76 |  |
| 2.1 | Cc1nc(-c2ccc(OCC(C)C)c(Cl)c2)sc1C(=O)O [Example 51, 2-(3-Chloro-4-isobutyloxyphenyl)-4-methyl-5-thiazolecarboxylic acid] | 78 |  |
| 1.8 | 2-(4-morpholino-3-nitrophenyl)-4-methyl-5-thiazolecarboxylic acid [Example 38] |  | Activity of lowering uric acid (serum uric acid; [1]): 91% |
| 1.7 | Cc1nc(-c2ccc(N3CCOCC3)c(C#N)c2)sc1C(=O)O [Example 81, 2-(3-Cyano-4-morpholinophenyl)-4-methyl-5-thiazolecarboxylic acid] | 91 |  |
| 1.5 | Cc1nc(-c2cc(Cl)c(OCCC(C)C)c(Cl)c2)sc1C(=O)O [Example 71, 2-(3,5-Dichloro-4-isopentyloxyphenyl)-4-methyl-5-thiazolecarboxylic acid] | 50 |  |
| 0.94 | Cc1nc(-c2ccc(OCC(C)C)c(Br)c2)sc1C(=O)O [Example 63, 2-(3-bromo-4-isobutyloxyphenyl)-4-methyl-5-thiazolecarboxylic acid] | 35 |  |
| 0.7 | Cc1nc(-c2cc(Cl)c(OCCN3CCOCC3)c(Cl)c2)sc1C(=O)O [Example 72, 2-(3,5-Dichloro-4-(2-morpholinoethyloxy)phenyl)-4-methyl-5-thiazolecarboxylic acid] | 48 |  |
| 0.38 | Cc1nc(-c2ccc(N3CCOCC3)c(Cl)c2)sc1C(=O)O [Example 59, 2-(3-chloro-4-morpholinophenyl)-4-methyl-5-thiazolecarboxylic acid] | 62 |  |
| 0.36 | CCOc1ccc(-c2nc(C)c(C(=O)O)s2)cc1[N+](=O)[O-] [Example 33, 2-(4-Ethoxy-3-nitrophenyl)-4-methyl-5-thiazolecarboxylic acid] | 71 |  |
| 0.24 | Cc1nc(-c2ccc(N3CCCCC3)c(Cl)c2)sc1C(=O)O [Example 60, 2-(3-Chloro-4-piperidinophenyl)-4-methyl-5-thiazolecarboxylic acid] | 55 |  |
| 0.18 | Cc1nc(-c2ccc(OCC3CCCCC3)c([N+](=O)[O-])c2)sc1C(=O)O [Example 32, 2-(4-Cyclohexylmethyloxy-3-nitrophenyl)-4-methyl-5-thiazolecarboxylic acid] | 48 |  |
| 0.02 | Cc1nc(-c2ccc(Sc3ccc(Cl)cc3)c([N+](=O)[O-])c2)sc1C(=O)O [Example 36, 2-(4-(4-chlrophenyl)thio-3-nitrophenyl)-4-methyl-5thiazolecarboxylic acid] | 14 |  |
